# Test results as given in patent EP2396020B1, “NOVEL ANTIMICROBIAL PEPTIDES” (Institute Of Organic Chemistry And Biochemistry As CR, …, priority 2009, dated 2010).
# Peptide text beside a SMILES is read from it.
# Assays:
# [1] = Determination of hemolytic activity; assay type: cell-based; details: rat red blood cells (5% suspension), 1 h at 37°C, physiological solution, read-out: hemolytic activity LC50
# Description: (§1) The peptides in the concentration (1-200 µM) were incubated with rat red blood cells (5%) for 1 h at 37°C in a physiological solution at a final volume of 0.2 ml The samples were then centrifuged for 5 min at 250 g, and the absorbance of the supernatant was determined at 540 nm. Supernatants of red blood cells suspended in physiological solution and in 0.2% TRITON X100 in physiological solution served as controls for zero hemolysis (blank) and 100% hemolysis, respectively.
# Bacillus subtilis = details: LB broth, 37°C, 20 h
# Description: (§2) Antimicrobial activity was determined as a quantitative minimum inhibitory concentration (MIC) by observing bacterial growth in the presence of different concentrations of tested peptides. Mid-exponential phase bacteria were added to the solutions of the tested antimicrobial peptide at different concentrations (0.5 to 100 µM) in LB broth in multi-well plates. The plates were incubated at 37°C for 20 h while being continuously shaken in a Bioscreen C instrument (Finland). The absorbance was measured at 540 nm every 15 min and each peptide was tested at least 3 times in duplicate. In the experiments was routinely used 1.2 10^3 - 7.5 10^3 CFU of bacteria. Tetracycline in a concentration range of 0.1 - 50 µM was tested as a standard.
# Staphylococcus aureus = details: LB broth, 37°C, 20 h
# Description: as §2
# Escherichia coli = details: LB broth, 37°C, 20 h
# Description: as §2
# Pseudomonnas aeruginosa = details: LB broth, 37°C, 20 h
# Description: as §2
# rat red blood cells = test: Determination of hemolytic activity; assay type: cell-based; details: rat red blood cells (5%), 1 h at 37°C, physiological solution
# Description: as §1
SMILES,HC50 at 1 h [1] [µM],antimicrobial activity MIC B.s. (Bacillus subtilis),antimicrobial activity MIC S.a. (Staphylococcus aureus),antimicrobial activity MIC E. c. (Escherichia coli),antimicrobial activity MIC P.a. (Pseudomonnas aeruginosa),hemolytic activity LC50 (rat red blood cells)
"CC[C@H](C)[C@H](NC(=O)[C@H](CC(C)C)NC(=O)[C@H](Cc1c[nH]cn1)NC(=O)CNC(=O)[C@H](CC(C)C)NC(=O)[C@@H](NC(=O)[C@H](CCCCN)NC(=O)[C@H](CO)NC(=O)[C@H](Cc1c[nH]c2ccccc12)NC(=O)[C@H](CCSC)NC(=O)CN)[C@@H](C)CC)C(=O)N[C@@H](CCCCN)C(N)=O [(1-A/3), H-Gly-Met-Trp-Ser-Lys-Ile-Leu-Gly-His-Leu-Ile-Lys-NH2] (H-GMWSKILGHLIK-NH2)",111,"0,75 µM","12,5 µM",6.0 µM,50 µM,
"CC[C@H](C)[C@H](NC(=O)[C@H](Cc1c[nH]cn1)NC(=O)[C@H](CCCCN)NC(=O)[C@H](CC(C)C)NC(=O)[C@H](CC(C)C)NC(=O)[C@H](CO)NC(=O)[C@H](CCCCN)NC(=O)[C@H](Cc1c[nH]c2ccccc12)NC(=O)[C@H](CCCCN)NC(=O)CN)C(=O)N[C@@H](CC(C)C)C(=O)N[C@@H](CCCCN)C(N)=O [(2-A/1), H-Gly-Lys-Trp-Lys-Ser-Leu-Leu-Lys-His-Ile-Leu-Lys-NH2] (H-GKWKSLLKHILK-NH2)",95,"1,5 µM",25 µM,3 µM,"12,5 µM",
"CC[C@H](C)[C@H](NC(=O)[C@H](Cc1c[nH]cn1)NC(=O)[C@H](CCCCN)NC(=O)[C@H](CC(C)C)NC(=O)[C@H](CC(C)C)NC(=O)[C@H](CCCCN)NC(=O)[C@H](CCSC)NC(=O)[C@H](Cc1c[nH]c2ccccc12)NC(=O)[C@H](CCCCN)NC(=O)CN)C(=O)N[C@@H](CC(C)C)C(=O)N[C@@H](CCCCN)C(N)=O [(2-A/2), H-Gly-Lys-Trp-Met-Lys-Leu-Leu-Lys-His-Ile-Leu-Lys-NH2] (H-GKWMKLLKHILK-NH2)",,"0,8 µM","4,5 µM","2,5 µM","10,7 µM","87,5 µM"
"CC[C@H](C)[C@H](NC(=O)[C@H](CC(C)C)NC(=O)[C@H](CCCCN)NC(=O)CNC(=O)[C@H](CC(C)C)NC(=O)[C@@H](NC(=O)[C@H](CCCCN)NC(=O)[C@H](CCCCN)NC(=O)[C@H](Cc1c[nH]c2ccccc12)NC(=O)[C@H](CCCCN)NC(=O)CN)[C@@H](C)CC)C(=O)N[C@@H](CCCNC(=N)N)C(N)=O [(1-A/4), H-Gly-Lys-Trp-Lys-Lys-Ile-Leu-Gly-Lys-Leu-Ile-Arg-NH2] (H-GKWKKILGKLIR-NH2)",> 200,"1,3 µM","60,0 µM","1,8 µM","14,2 µM",
"CC[C@H](C)[C@H](NC(=O)[C@H](CC(C)C)NC(=O)[C@H](Cc1c[nH]cn1)NC(=O)CNC(=O)[C@H](CC(C)C)NC(=O)[C@@H](NC(=O)[C@H](CCCCN)NC(=O)[C@H](CCCCN)NC(=O)[C@H](Cc1c[nH]c2ccccc12)NC(=O)[C@H](CCSC)NC(=O)CN)[C@@H](C)CC)C(=O)N[C@@H](CCCNC(=N)N)C(N)=O [(1-A/1), H-Gly-Met-Trp-Lys-Lys-Ile-Leu-Gly-His-Leu-Ile-Arg-NH2] (H-GMWKKILGHLIR-NH2)",93,"1,1 µM","6,0 µM","1,8 µM","12,5 µM",
"CC[C@H](C)[C@H](NC(=O)[C@H](CC(C)C)NC(=O)[C@H](Cc1c[nH]cn1)NC(=O)CNC(=O)[C@H](CC(C)C)NC(=O)[C@@H](NC(=O)[C@H](CCCCN)NC(=O)[C@H](CO)NC(=O)[C@H](Cc1c[nH]c2ccccc12)NC(=O)[C@H](CCSC)NC(=O)CN)[C@@H](C)CC)C(=O)N[C@@H](CCCNC(=N)N)C(N)=O [(1), H-Gly-Met-Trp-Ser-Lys-Ile-Leu-Gly-His-Leu-Ile-Arg-NH2] (H-GMWSKILGHLIR-NH2)",80,"0,7 µM","7,4 µM","3,8 µM",45 µM,
"CC[C@H](C)[C@H](NC(=O)[C@H](CCCCN)NC(=O)[C@H](CCCCN)NC(=O)[C@H](CC(C)C)NC(=O)[C@H](CC(C)C)NC(=O)[C@H](CO)NC(=O)[C@H](CCSC)NC(=O)[C@H](Cc1c[nH]c2ccccc12)NC(=O)[C@H](CCCCN)NC(=O)CN)C(=O)N[C@@H](CC(C)C)C(=O)N[C@@H](CCCCN)C(N)=O [(2-A/3), H-Gly-Lys-Trp-Met-Ser-Leu-Leu-Lys-Lys-Ile-Leu-Lys-NH2] (H-GKWMSLLKKILK-NH2)",126,"1,2 µM","6,3 µM","2,7 µM","13,8 µM",
"CC[C@H](C)[C@H](NC(=O)[C@H](Cc1c[nH]cn1)NC(=O)[C@H](CCCCN)NC(=O)[C@H](CC(C)C)NC(=O)[C@H](CC(C)C)NC(=O)[C@H](CO)NC(=O)[C@H](CCSC)NC(=O)[C@H](Cc1c[nH]c2ccccc12)NC(=O)[C@H](CCCCN)NC(=O)CN)C(=O)N[C@@H](CC(C)C)C(=O)N[C@@H](CCCCN)C(N)=O [(2), H-Gly-Lys-Trp-Met-Ser-Leu-Leu-Lys-His-Ile-Leu-Lys-NH2] (H-GKWMSLLKHILK-NH2)",80,"0,8 µM","7,5 µM","2,2 µM",33 µM,
"CC[C@H](C)[C@H](NC(=O)[C@H](CCCCN)NC(=O)[C@H](CO)NC(=O)[C@H](Cc1c[nH]c2ccccc12)NC(=O)[C@H](CCSC)NC(=O)CN)C(=O)N[C@@H](CC(C)C)C(=O)NCC(=O)N[C@@H](Cc1c[nH]cn1)C(=O)N[C@@H](CC(C)C)C(=O)N[C@@H](CCCCN)C(=O)N[C@@H](CCCNC(=N)N)C(N)=O [(1-A/2), H-Gly-Met-Trp-Ser-Lys-Ile-Leu-Gly-His-Leu-Lys-Arg-NH2] (H-GMWSKILGHLKR-NH2)",> 200,"2,2 µM",100 µM,28 µM,90 µM,
